Laboratory results taken from patent publication US20100256229A1, “COMPOSITIONS OF CHOL[…]” (priority 2009, published 2010).
Structures can show the parent of a compound that is named as a salt.

Tests used:
[1] = Mechanical stress (micronizing); assay type: physicochemical; details: micronizing 20 minutes at 30 Hz, after standing 20 minutes; ball mill stress
Text: FIG. 13 is two microscopic views of the hydrogen fumarate salt of compound 3d under mechanical stress.

[2] = Hygroscopicity testing and sorption isotherm; assay type: physicochemical; details: for hygroscopicity testing, appearance: sulfate after 3 days, fumarate after 7 days
[3] = Solubility (formulation studies)
[4] = Solid state and solution stability; details: for solid state stability to heat: 40° C. for 7 days; for solid state stability to UV: 220 W-h/m^2; for solid state stability to visible light: visible light exposure, 7.3×10^6 lux hours
[5] = Maximum Tolerated Dose determination
Procedure: The in vivo effectiveness of the stigmine compounds in vivo inhibitors was evaluated. Initially, the Maximum Tolerated Dose (MTD) was determined for each compound. The MTD was defined as the dose at which clear, yet reversible and non-life threatening cholinergic effects were observed.
(§1) Following administration, rats were sacrificed and blood and brain samples were collected, processed and ChE activity was determined spectrophotometrically as described above.

[6] = test system: total plasma cholinesterase; experiment: In vivo inhibition of plasma cholinesterase after oral dosing; parameters: species or system rats
Procedure: as §1

male Wistar rats = experiment: Wake promotion, EEG/EMG sleep-wake monitoring (SCORE2004); details: for duration of wakefulness (total minutes of sleep loss): dosed at CT-5, various dose ranges
Procedure: Test compounds in various dose ranges or vehicle were administered to male Wistar rats 5 hours after lights on (CT-5). EEG, EMG, locomotor activity, drink- and food-related activity, and body temperature were concurrently monitored for 30 hr before and after treatment from rats living in separate isolated recording chambers.

[7] = test system: total brain cholinesterase; experiment: In vivo inhibition of brain cholinesterase after oral dosing; parameters: species or system rats
Procedure: as §1

[8] = biological target: T1, BuChE (human, purified from) (Homo sapiens, UniProt P06276); experiment: In vitro inhibition of BuChE, modified Ellman procedure; assay type: biochemical; details: purified human butyrylcholinesterase (plasma); mean of two or three independent experiments; read-out: hBuChE IC50
T1 construct: BuChE (human, purified from erythrocytes); from tissue

rhAChE [9] = biological target: T2, rhAChE (Homo sapiens, UniProt P22303); experiment: Decarbamylation / reconstitution of inhibited enzyme; assay type: biochemical; details: for Decarbamylation rate k: phosphate buffer, 37° C., first-order model
Procedure: Next, the release of amphetamine from inhibited cholinesterase was investigated indirectly by monitoring reconstitution of enzyme activity as described above. […] The enzyme was separated from small organic molecules (carbamate and possible degradation products) by size exclusion chromatography over a Sephadex column. Purified, inhibited enzyme was incubated in phosphate buffer at 37° C., aliquots were drawn at various time points and the enzymatic activity was determined as described above. The data were plotted as the natural logarithm of the percent inhibition versus time according to a first-order kinetics model. The decarbamylation rate constant k was determined as the slope of this line. The halflife t1/2 is directly related to k (k=−ln(0.500)/t1/2).

rhAChE [10] = biological target: T2, rhAChE; details: for IC50: read-out: rhAChE IC50
[11] = test system: scopolamine model of passive avoidance; experiment: Scopolamine model of passive avoidance; assay type: in vivo, rats; details: 8 and 12 mg/kg i.p. 30 minutes before training; scopolamine 0.2 mg/kg s.c.; p<0.01
Procedure: Prior to training, rats were injected with scopolamine hydrobromide (0.2 mg/kg, s.c, 40 minutes before training) and with either saline or compound 4a (8, 12, 16 or 24 mg/kg, i.p, 30 minutes prior to training). The animals received a retention test 24 hours following training. The retention test was identical to training except that no foot-shock or drug was delivered. Latency to enter the dark chamber was recorded.

[12] = biological target: Recombinant human cholinesterase (Homo sapiens, UniProt P22303); experiment: Amphetamine release from inhibited enzyme, LC/MS/MS; assay type: biochemical
[13] = test system: rats trained to discriminate methamphetamine from saline; experiment: Drug discrimination (methamphetamine versus saline); assay type: in vivo; details: 0.1-3.2 mg/kg i.p. or 0.32-10 mg/kg p.o.
Text: Drug discrimination is an operant paradigm that enables assessment of drug abuse liability (Yasar & Bergman, 1994. Amphetamine-like effect of 1-deprenyl (selegiline) in drug discrimination studies. Clin. Pharmacol. Therap. 56 (S78), 768-773). In this paradigm, psychostimulant properties of compounds may be determined in rats trained to discriminate methamphetamine from saline. Hungry rats are initially placed in a test apparatus where they learn that pressing either of two levers results in delivery of a food pellet. […]. On other days, rats are pretreated with vehicle, and must then select the opposite lever in order to obtain food. In this way, rats must learn to use the interoceptive cues generated by the psychostimulant drug to guide its choice of levers. Once lever pressing to a predetermined criterion has been established, a test compound can be administered. […]. If the rat chooses the methamphetamine lever, the test drug is said to have shown stimulus generalization; that is, it is perceived to be methamphetamine-like by the rat. […].

[14] = oral dosing at MTD, mean of three measurements between 30 and 180 min following dosing
[15] = 60 minutes after oral dosing at MTD or highest dose tested, n = 4

T2 sequence (P22303 32-614): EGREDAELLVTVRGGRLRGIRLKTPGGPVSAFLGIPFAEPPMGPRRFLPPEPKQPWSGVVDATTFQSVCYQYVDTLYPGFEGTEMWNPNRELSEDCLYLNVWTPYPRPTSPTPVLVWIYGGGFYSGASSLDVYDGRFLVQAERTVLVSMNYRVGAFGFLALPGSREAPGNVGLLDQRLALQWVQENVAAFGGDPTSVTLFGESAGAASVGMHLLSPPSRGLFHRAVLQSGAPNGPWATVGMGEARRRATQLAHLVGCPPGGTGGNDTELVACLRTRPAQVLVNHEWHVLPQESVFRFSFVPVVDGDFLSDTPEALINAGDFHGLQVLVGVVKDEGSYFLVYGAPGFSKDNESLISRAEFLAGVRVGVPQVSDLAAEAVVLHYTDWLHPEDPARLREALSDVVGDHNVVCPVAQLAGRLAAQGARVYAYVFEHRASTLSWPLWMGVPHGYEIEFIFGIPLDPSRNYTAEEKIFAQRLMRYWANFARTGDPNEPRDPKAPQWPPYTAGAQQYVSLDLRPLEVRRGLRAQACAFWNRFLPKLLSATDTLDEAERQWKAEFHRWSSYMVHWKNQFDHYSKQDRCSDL
T1 sequence (P06276 29-602): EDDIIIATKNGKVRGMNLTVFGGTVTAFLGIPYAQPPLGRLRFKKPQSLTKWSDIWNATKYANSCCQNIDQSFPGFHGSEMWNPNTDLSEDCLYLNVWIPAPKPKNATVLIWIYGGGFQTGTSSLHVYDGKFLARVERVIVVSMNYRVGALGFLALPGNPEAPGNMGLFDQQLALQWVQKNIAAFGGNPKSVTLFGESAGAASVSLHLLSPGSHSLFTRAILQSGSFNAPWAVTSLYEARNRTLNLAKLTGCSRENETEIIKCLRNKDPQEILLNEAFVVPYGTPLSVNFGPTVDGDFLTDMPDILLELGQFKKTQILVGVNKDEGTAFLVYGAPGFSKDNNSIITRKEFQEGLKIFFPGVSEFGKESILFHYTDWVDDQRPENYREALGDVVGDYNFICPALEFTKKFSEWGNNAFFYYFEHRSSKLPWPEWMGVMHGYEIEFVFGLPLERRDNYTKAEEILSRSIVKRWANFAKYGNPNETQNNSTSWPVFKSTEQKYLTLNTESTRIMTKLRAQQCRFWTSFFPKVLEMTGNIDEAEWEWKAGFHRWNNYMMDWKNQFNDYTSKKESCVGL
Sequence of Recombinant human cholinesterase (P22303 32-614): as the sequence (P22303 32-614) above

C[C@H](Cc1ccccc1)N(C)C(=O)Oc1cccc([C@H](C)N(C)C)c1 [Compound 3d, 3-((S)-1-(dimethylamino)ethyl)phenyl methyl-((R)-1-phenylpropan-2 yl)carbamate]
mechanical stress [1]: instability to extreme thermal conditions | hygroscopicity testing by DSC and XRPD ([2]; 40° C./75 RH, 7 days): stability over 7 days | maximum moisture uptake (sorption isotherm) ([2]; at 75 RH): about 1% | solubility ([3]; pH 3, aqueous buffer): > 50 mg/mL | solubility ([3]; sixteen vehicles for oral dosing (rodents), aqueous with cosolvent or surfactant or cyclodextrin): > 50 mg/mL | solid state stability to heat [4]: stable | solid state stability to UV [4]: stable | solution stability ([4]; pH 4, 5, 6, after 7 days, HPLC recovery): stable | solid state stability to visible light [4]: no change

CCN(C)C(=O)Oc1cccc([C@H](C)N(C)C)c1 [Rivastigmine, rivastigmine, reference compound]
MTD ([5]; oral, dose with clear, reversible, non-life threatening cholinergic effects, or highest dose tested): 5 mg/kg | Plasma ChEI [6, 14]: 39% | duration of wakefulness (total minutes of sleep loss) (male Wistar rats): increased wakefulness | Brain ChEI [7, 14]: 56%

CC(c1cccc(OC(=O)N(C)C(C)Cc2ccccc2)c1)N(C)C (centres unmarked) [Compound 4d]
IC50 [8]: 24.4 µM | MTD ([5]; rat, in vivo, po): 10 mg/kg | Plasma ChEI [6, 15]: 45% | Brain ChEI [7, 15]: 64% | Decarbamylation rate k (rhAChE [9]): 0.011 h⁻¹

C[C@H](Cc1ccccc1)N(C)C(=O)Oc1cccc([C@H](C)N(C)C)c1.O=C(O)/C=C/C(=O)O [hydrogen fumarate salt of compound 3d, 3-((S)-1-(Dimethylamino)ethyl)phenyl methyl-((R)-1-phenylpropan-2 yl)carbamate Hydrogen Fumarate]
mechanical stress [1]: gumming | hygroscopicity testing, appearance ([2]; 40° C./75 RH): solid | hygroscopicity, analysis by microscopy ([2]; after 7 days at 75% relative humidity): remains crystalline with traces of amorphous material | solid state stability to heat [4]: stable | solid state stability to UV [4]: stable | chemical stability in water ([4]; up to 7 days at 40° C.): stable | solid state stability to visible light [4]: stable

C[C@H](Cc1ccccc1)NC(=O)Oc1cccc([C@H](C)N(C)C)c1 [Compound 4b]
IC50 [8]: 0.416 µM | MTD ([5]; rat, in vivo, po): 32 mg/kg | Plasma ChEI [6, 15]: 26% | IC50 (rhAChE [10]): 0.404 µM | Brain ChEI [7, 15]: 25% | Decarbamylation rate k (rhAChE [9]): 0.057 h⁻¹

C[C@H](N)Cc1ccccc1 [d-amphetamine, reference compound]
duration of wakefulness (total minutes of sleep loss) (male Wistar rats): increased the duration of wakefulness

C[C@@H](c1cccc(OC(=O)N(C)[C@@H](C)Cc2ccccc2)c1)N(C)C [Compound 4c]
IC50 [8]: 0.334 µM | MTD ([5]; rat, in vivo, po): > 64 mg/kg | Plasma ChEI [6, 15]: 50% | Brain ChEI [7, 15]: 50% | Decarbamylation rate k (rhAChE [9]): 0.003 h⁻¹

C[C@@H](Cc1ccccc1)NC(=O)Oc1cccc([C@H](C)N(C)C)c1 [Compound 4a]
scopolamine-induced amnesia, step-through latency at 24 h retention test [11]: alleviated | IC50 [8]: 7.32 µM | MTD ([5]; rat, in vivo, po): > 100 mg/kg | Plasma ChEI [6, 15]: 59% | more selective for AChE than rivastigmine (rhAChE [10]): 225 fold | IC50 (rhAChE [10]): 0.508 µM | d-amphetamine in decarbamylation aliquots ([12]; aliquots drawn 4 h later): 53 ng/mL | amphetamine in decarbamylation aliquots ([12]; aliquots drawn at t=0): did not contain amphetamine | Brain ChEI [7, 15]: 72% | enzyme reconstitution (rhAChE [9]; at 4 h): 80% | Decarbamylation rate k (rhAChE [9]): 0.558 h⁻¹

C[C@@H](c1cccc(OC(=O)N(C)[C@@H](C)Cc2ccccc2)c1)N(C)C [D, s-riva-d-methamphetamine]
duration of wakefulness (total minutes of sleep loss) (male Wistar rats): dose-related increase in wakefulness

C[C@H](Cc1ccccc1)N(C)C(=O)Oc1cccc([C@H](C)N(C)C)c1 [hydrogen sulfate salt of compound 3d, 3-(S)-1-(Dimethylamino)ethyl)phenyl methyl-((R)-1-phenylpropan-2 yl)carbamate Hydrogen Sulfate]
hygroscopicity testing, appearance ([2]; 40° C./75 RH): deliquesces

C[C@H](Cc1ccccc1)NC(=O)Oc1cccc([C@H](C)N(C)C)c1 [Compound A, s-riva-l-amphetamine]
duration of wakefulness (total minutes of sleep loss) (male Wistar rats): dose-related increase in wakefulness

C[C@@H](Cc1ccccc1)NC(=O)Oc1cccc([C@H](C)N(C)C)c1 [C, s-riva-d-amphetamine]
duration of wakefulness (total minutes of sleep loss) (male Wistar rats): dose-related increase in wakefulness

NC(=O)C[S+]([O-])C(c1ccccc1)c1ccccc1 (centres unmarked) [modafinil, reference compound]
duration of wakefulness (total minutes of sleep loss) (male Wistar rats): increased the duration of wakefulness

C[C@H](Cc1ccccc1)N(C)C(=O)Oc1cccc([C@H](C)N(C)C)c1 [Compound B, s-riva-l-methamphetamine]
stimulus generalization to methamphetamine (lever selection) [13]: did not select the methamphetamine lever | duration of wakefulness (total minutes of sleep loss) (male Wistar rats): dose-related increase in wakefulness | rebound hypersomnolence (male Wistar rats; following administration): not observed | body temperature (male Wistar rats; rat, in vivo): reduction in body temperature | locomotor activity (male Wistar rats; rat, in vivo): did not cause locomotor hyperactivity | increase in wakefulness compared with reference compounds (male Wistar rats; versus d-amphetamine, rivastigmine, modafinil): surpassed that seen with the reference compounds tested
